Measurements taken from article PMC4274170 (Toxicology letters, 2014).
Where two headings read alike, the source gives them in different places.

Assays:
[1] = mouse, microsomes
[2] = rat, microsomes
[3] = human
in vitro [4] = details: female, B6129SF1/J, mouse, pH 7.4
in vitro [5] = details: male, Sprague-Dawley, rat, pH 7.4
in vitro [6] = details: female, human, pH 7.4, Km
In vitro metabolism [7] = test: In vitro metabolism
In vitro metabolism [8] = format: in vitro ADME, mouse
humans = details: ref WHO, 2010, 2012; cited from earlier work
In vitro metabolism [9] = details: female human
In vitro metabolism [10] = test: In vitro metabolism; remark: listed apart in the source
[11] = pregnant relative to naïve female mice

SMILES: c1ccc2c(c1)cc1ccc3cccc4ccc2c1c34 [B[a]P, benzo[a]pyrene]
- B[a]P CLINT exceeded DBC CLINT, margin (in vitro half-life method) ([1]; female, B6129SF1/J, pH 7.4): 10.6 fold
- CLINT for B[a]P exceeded that of DBC, margin (Michaelis-Menten regressions) ([1]; female, B6129SF1/J, pH 7.4): 9.0 fold
- Organism level CLINT, MM [1]: 1445.2 ± 778.0 ml/min/kg body weight
- Organism level CLINT, t 1/2 [1]: 2699.0 ± 1803.4 ml/min/kg body weight
- Tissue level CLINT, t 1/2 [1]: 48.53 ± 32.79 ml/min/g tissue
- B[a]P CLINT exceeded DBC CLINT, margin (in vitro half-life method) ([2]; male, Sprague-Dawley, pH 7.4): 1.4 fold
- CLINT for B[a]P exceeded that of DBC, margin (Michaelis-Menten regressions) ([2]; male, Sprague-Dawley, pH 7.4): 2.6 fold
- Organism level CLINT, MM [2]: 65.90 ± 71.68 ml/min/kg body weight
- Organism level CLINT, t 1/2 [2]: 51.34 ± 22.19 ml/min/kg body weight
- Tissue level CLINT, t 1/2 [2]: 1.40 ± 0.61 ml/min/g tissue
- B[a]P CLINT exceeded DBC CLINT, margin (in vitro half-life method) ([3]; female, microsomes, pH 7.4): 13.3 fold
- CLINT for B[a]P exceeded that of DBC, margin (Michaelis-Menten regressions) ([3]; female, microsomes, pH 7.4): 3.3 fold
- Km ([3]; female, pH 7.4): 0.725 ± 0.581 µM
- Organism level CLINT, MM ([3]; microsomes): 27.16 ± 29.98 ml/min/kg body weight
- Organism level CLINT, t 1/2 ([3]; microsomes): 54.69 ml/min/kg body weight
- Tissue level CLINT, t 1/2 ([3]; microsomes): 2.13 ml/min/g tissue
- Km (in vitro [4]): 4.97 ± 1.96 µM
- Km (in vitro [5]): 18 ± 12.9 µM
- Km (in vitro [6]): 0.73 µM
- KM in male rats exceeded that in female mice (In vitro metabolism [7]; male rat relative to female mouse): 3.6 fold

SMILES: c1ccc2c(c1)cc1ccc3cccc4c5ccccc5c2c1c34 [DBC, dibenzo[def,p]chrysene]
- Km (In vitro metabolism [8]; female, B6129SF1/J, mouse, liver microsomes of pregnant (GD17) mice, pH 7.4): 3.28 ± 1.38 µM
- Tissue level CLINT, MM (In vitro metabolism [8]; pregnant mouse, Michaelis-Menten method (Vmax/Km scaled)): 3.81 ± 2.28 ml/min/g tissue
- Organism level CLINT, MM (In vitro metabolism [8]; pregnant mouse, Michaelis-Menten method, liver weight 41.8 g per kg body weight): 159.43 ± 95.51 ml/min/kg body weight
- Tissue level CLINT, t 1/2 (In vitro metabolism [8]; pregnant mouse, in vitro half-life method): 3.31 ± 1.75 ml/min/g tissue
- KM reduced in the pregnant animal (In vitro metabolism [8]; [11]): 51%
- VMAX reduced in the pregnant animal (In vitro metabolism [8]; [11]): 35%
- higher tissue level CLINT in the pregnant animal (Michaelis-Menten regression method) (In vitro metabolism [8]; [11]): 30%
- tissue level CLINT lower in the pregnant animal (in vitro half-life method) (In vitro metabolism [8]; [11]): 28%
- IARC classification (humans): Group 2A
- Tissue level CLINT, MM (In vitro metabolism [9]; Michaelis-Menten method (Vmax/Km scaled)): 0.32 ± 0.46 ml/min/g tissue
- Organism level CLINT, MM (In vitro metabolism [9]; Michaelis-Menten method, liver weight 25.7 g per kg body weight): 8.19 ± 11.73 ml/min/kg body weight
- Tissue level CLINT, t 1/2 (In vitro metabolism [9]; in vitro half-life method): 0.16 ml/min/g tissue
- Organism level CLINT, t 1/2 (In vitro metabolism [9]; in vitro half-life method, liver weight 25.7 g per kg body weight): 4.23 ml/min/kg body weight
- Vmax (In vitro metabolism [7]; male rat liver microsomes, Michaelis-Menten regression of substrate depletion): 0.167 ± 0.064 nmol/min/mg MSP
- Tissue level CLINT, MM (In vitro metabolism [7]; male rat, Michaelis-Menten method (Vmax/Km scaled)): 0.69 ± 0.73 ml/min/g tissue
- Organism level CLINT, MM (In vitro metabolism [7]; male rat, Michaelis-Menten method, liver weight 36.6 g per kg body weight): 25.14 ± 26.85 ml/min/kg body weight
- Tissue level CLINT, t 1/2 (In vitro metabolism [7]; male rat, in vitro half-life method): 1.01 ± 0.30 ml/min/g tissue
- Organism level CLINT, t 1/2 (In vitro metabolism [7]; male rat, in vitro half-life method, liver weight 36.6 g per kg body weight): 37.05 ± 10.96 ml/min/kg body weight
- Km (In vitro metabolism [7]; male, Sprague-Dawley, rat, pH 7.4): 7.28 ± 4.99 µM
- Km (In vitro metabolism [10]; female, B6129SF1/J, mouse, pH 7.4): 6.63 ± 1.01 µM
- Vmax (In vitro metabolism [10]; naïve mouse liver microsomes, Michaelis-Menten regression of substrate depletion): 0.646 ± 0.055 nmol/min/mg MSP
- Tissue level CLINT, MM (In vitro metabolism [10]; naïve mouse, Michaelis-Menten method (Vmax/Km scaled)): 2.92 ± 0.71 ml/min/g tissue
- Organism level CLINT, MM (In vitro metabolism [10]; naïve mouse, Michaelis-Menten method, liver weight 55 g per kg body weight): 160.71 ± 38.94 ml/min/kg body weight
- Tissue level CLINT, t 1/2 (In vitro metabolism [10]; naïve mouse, in vitro half-life method): 4.59 ± 0.53 ml/min/g tissue
- Organism level CLINT, t 1/2 (In vitro metabolism [10]; naïve mouse, in vitro half-life method, liver weight 55 g per kg body weight): 252.18 ± 29.26 ml/min/kg body weight
